Calls of active or inactive are those of the source. The rule behind the calls is not given here.
Tests used:
[1] = molecular target: T1, Androgen receptor (Homo sapiens) (UniProt P10275); test: Antagonist activity at AR in human LAPC4 cells assessed as reduction in Nkx3.1 expression at 10 uM incubated for 24 hrs in presence of R1881 by Western blotting analysis; type: cell-based; settings: filed as antagonist
T1 sequence (whole entry): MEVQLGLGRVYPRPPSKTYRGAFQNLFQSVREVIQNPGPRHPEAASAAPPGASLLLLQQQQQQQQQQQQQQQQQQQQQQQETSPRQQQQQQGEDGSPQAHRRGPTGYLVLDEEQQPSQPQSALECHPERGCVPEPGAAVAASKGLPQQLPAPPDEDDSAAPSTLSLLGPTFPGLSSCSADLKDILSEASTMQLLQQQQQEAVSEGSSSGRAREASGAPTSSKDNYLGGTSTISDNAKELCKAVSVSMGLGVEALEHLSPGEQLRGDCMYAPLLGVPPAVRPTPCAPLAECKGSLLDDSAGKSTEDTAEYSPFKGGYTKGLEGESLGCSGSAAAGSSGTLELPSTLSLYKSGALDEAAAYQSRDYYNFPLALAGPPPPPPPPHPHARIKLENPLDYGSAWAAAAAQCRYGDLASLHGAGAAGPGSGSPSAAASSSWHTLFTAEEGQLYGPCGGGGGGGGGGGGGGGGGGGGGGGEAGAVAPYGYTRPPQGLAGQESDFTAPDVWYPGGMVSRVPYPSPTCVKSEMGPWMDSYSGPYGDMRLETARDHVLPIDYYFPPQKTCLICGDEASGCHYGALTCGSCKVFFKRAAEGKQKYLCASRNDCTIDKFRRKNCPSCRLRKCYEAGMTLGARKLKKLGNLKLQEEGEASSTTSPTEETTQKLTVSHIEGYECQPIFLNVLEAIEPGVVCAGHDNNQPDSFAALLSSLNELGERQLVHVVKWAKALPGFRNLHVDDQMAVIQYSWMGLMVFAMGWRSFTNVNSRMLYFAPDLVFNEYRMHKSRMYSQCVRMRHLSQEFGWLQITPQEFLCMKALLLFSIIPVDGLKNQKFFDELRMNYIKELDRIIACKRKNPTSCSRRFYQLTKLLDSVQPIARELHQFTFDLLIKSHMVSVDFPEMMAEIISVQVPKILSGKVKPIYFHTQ

CWR22R [2] = test: Cytotoxicity against human 22Rv1 cells assessed as cell viability at 20 uM incubated for 72 hrs by resazurin dye based microplate reader assay; type: functional; settings: read-out: Activity
LAPC4 [3] = test: Cytotoxicity against human LAPC4 cells assessed as cell viability at 20 uM incubated for 72 hrs by resazurin dye based microplate reader assay; type: functional; settings: read-out: Activity
[4] = Downregulation of AR protein expression in human LAPC4 cells assessed as AR levels at 10 uM incubated for 24 hrs by immunoblotting analysis; type: functional
LAPC4 [5] = test: Inhibition of colony formation in human LAPC4 cells at 5 uM incubated for 10 days by crystal violet staining based assay; type: functional, cell-based; settings: time 10.0 day
LAPC4 [6] = test: Inhibition of colony formation in human LAPC4 cells at 10 uM incubated for 10 days by crystal violet staining based assay; type: functional; settings: LAPC4, 240 h, time 10 day
[7] = molecular target: T1, Androgen receptor (Homo sapiens); test: Antagonist activity at AR in human LAPC4 cells assessed as reduction in PSA expression at 10 uM incubated for 24 hrs in presence of R1881 by Western blotting analysis; type: cell-based; settings: filed as antagonist
DU-145 [8] = test: Cytotoxicity against human DU-145 cells assessed as cell viability at 20 uM incubated for 72 hrs by resazurin dye based microplate reader assay; type: functional; settings: read-out: Activity
[9] = molecular target: T1, Androgen receptor (Homo sapiens); test: Antagonist activity at AR in human LNCaP-abl cells assessed as reduction in PSA expression at 10 uM incubated for 24 hrs in presence of R1881 by Western blotting analysis; type: cell-based; settings: filed as antagonist
[10] = molecular target: T1, Androgen receptor (Homo sapiens); test: Antagonist activity at AR in human LNCaP-abl cells assessed as reduction in phosphorylation at S81 at 10 uM incubated for 24 hrs in presence of R1881 by Western blotting analysis; type: cell-based; settings: filed as antagonist
LAPC4 [11] = test: Induction of apoptosis in human LAPC4 cells assessed as cleaved caspase-7 expression at 2 to 10 uM incubated for 48 to 72 hrs; type: functional, cell-based; settings: dose 2-10 µM, time 48-72 hrs
LAPC4 [12] = test: Induction of apoptosis in human LAPC4 cells assessed as cleaved caspase-3 expression at 2 to 10 uM incubated for 48 to 72 hrs; type: functional, cell-based; settings: dose 2-10 µM, time 48-72 hrs
LAPC4 [13] = test: Induction of apoptosis in human LAPC4 cells assessed as PARP-1 expression at 2 to 10 uM incubated for 48 to 72 hrs; type: functional, cell-based; settings: dose 2-10 µM, time 48-72 hrs
[14] = molecular target: T1, Androgen receptor (Homo sapiens); test: Antagonist activity at AR transcription in human 22Rv1 cells assessed as reduction in PSA mRNA expression at 10 uM incubated for 24 hrs in presence of R1881 by qPCR analysis; type: cell-based; settings: filed as antagonist
DU-145 [15] = test: Induction of cell cycle arrest in human DU-145 cells assessed as reduction S phase cells incubated for 48 hrs; type: functional, cell-based
[16] = molecular target: T1, Androgen receptor (Homo sapiens); test: Antagonist activity at AR in human LNCaP cells assessed as reduction in PSA expression at 2 to 10 uM incubated for 72 hrs by Western blotting analysis; type: cell-based; set-up: scale not given: the % may be the effect or the level left; settings: filed as antagonist, dose 2-10 µM
[17] = molecular target: T1, Androgen receptor (Homo sapiens); test: Antagonist activity at AR transcription in human LAPC4 cells assessed as reduction in PSA mRNA expression at 10 uM incubated for 24 hrs in presence of R1881 by qPCR analysis; type: cell-based; settings: filed as antagonist
[18] = molecular target: T1, Androgen receptor (Homo sapiens); test: Antagonist activity at AR in human LNCaP cells incubated for 24 hrs in presence of R1881 by Western blotting analysis; type: cell-based; settings: filed as antagonist
LAPC4 [19] = test: Antiproliferative activity against human LAPC4 cells; type: functional; settings: time 72 hrs
[20] = molecular target: T1, Androgen receptor (Homo sapiens); test: Antagonist activity at AR in human LAPC4 cells incubated for 24 hrs in presence of R1881 by Western blotting analysis; type: cell-based; settings: filed as antagonist, dose 1.25-10 µM
[21] = molecular target: T1, Androgen receptor (Homo sapiens); test: Antagonist activity at AR transcription in human LAPC4 cells assessed as reduction in AR mRNA expression at 10 uM incubated for 24 hrs in presence of R1881 by qPCR analysis; type: cell-based; settings: filed as antagonist
LAPC4 [22] = test: Antiproliferative activity against human LAPC4 cells assessed as viable cells at 2 to 10 uM incubated for 24 to 48 hrs by resazurin dye based assay; type: functional; settings: dose 2-10 µM, time 24-48 hrs
LAPC4 [23] = test: Reversal of AR degradation in human LAPC4 cells at 10 to 20 uM preincubated for 1 hr followed by bav-degalutamide addition and measured after 4 hrs; type: functional, cell-based; settings: dose 10-20 µM, time 5.0 hrs
[24] = molecular target: T1, Androgen receptor (Homo sapiens); test: Antagonist activity at AR in human LNCaP cells assessed as reduction in Nkx3.1 expression at 2 to 10 uM incubated for 72 hrs by Western blotting analysis; type: cell-based; set-up: scale not given: the % may be the effect or the level left; settings: filed as antagonist, dose 2-10 µM
CWR22R [25] = test: Induction of cell cycle arrest in human 22Rv1 cells assessed as reduction S phase cells incubated for 48 hrs; type: functional, cell-based
LAPC4 [26] = test: Induction of cell cycle arrest in human LAPC4 cells assessed as reduction S phase cells incubated for 48 hrs; type: functional, cell-based
[27] = molecular target: T1, Androgen receptor (Homo sapiens); test: Antagonist activity at AR in human 22Rv1 cells incubated for 24 hrs in presence of R1881 by Western blotting analysis; type: cell-based; settings: filed as antagonist
[28] = molecular target: T1, Androgen receptor (Homo sapiens); test: Binding affinity to His6 tagged recombinant human AR LBD expresssed in Escherichia coli BL21(DE3) cells by MST assay; settings: filed as antagonist
Androgen receptor = molecular target: T2, Androgen receptor (Homo sapiens, UniProt P10275); test: Antagonist activity at AR transcription in human 22Rv1 cells incubated for 24 hrs in presence of R1881; type: cell-based
T2 sequence (P10275 whole entry): T1 sequence (whole entry)

LAPC4 [29] = test: Antiproliferative activity against human LAPC4 cells assessed as decrease in […] at 2 to 10 uM incubated for 24 to 72 hrs by resazurin dye based assay; type: functional, cell-based; settings: dose 2-10 µM, time 24-72 hrs

Row | SMILES | Activity [1] | viability at 20 µM (CWR22R [2]) | viability at 20 µM (LAPC4 [3]) | Activity [4] | inhibition (LAPC4 [5]) | inhibition at 10 µM (LAPC4 [6]) | Activity [7] | viability at 20 µM (DU-145 [8]) | Activity [9] | Activity [10] | other results
1 | Cn1nc2c(c1-c1ccco1)C[C@@]1(C)[C@@H](CC[C@@H]3[C@@H]1CC[C@]1(C)[C@@H](O)CC[C@@H]31)C2 | Active | 18% | 50% | 78% | Active | 2% | Active | 100% |  |  | 
2 | Cc1c2c(nn1-c1ccc(C#N)cc1)C[C@@H]1CC[C@@H]3[C@H](CC[C@]4(C)C(=O)CC[C@@H]34)[C@@]1(C)C2 |  | 87% | 78% |  | Active | 29% |  | ≥ 100% | Active | Active | 
3 | Cn1nc2c(c1-c1cccs1)C[C@@]1(C)[C@@H](CC[C@@H]3[C@@H]1CC[C@]1(C)[C@@H](O)CC[C@@H]31)C2 | Active | 44% | 46% | 87% | Active | 1% | Active | 100% |  |  | 
4 | Cn1nc2c(c1-c1ccc(Br)cc1)C[C@@]1(C)[C@@H](CC[C@@H]3[C@@H]1CC[C@]1(C)C(=O)CC[C@@H]31)C2 | Active | 56% | 20% | 49% | Active | 15% | Active | 96% |  |  | 
5 | Cc1c2c(nn1-c1ccc(F)cc1)C[C@@H]1CC[C@@H]3[C@H](CC[C@]4(C)[C@@H](O)CC[C@@H]34)[C@@]1(C)C2 | Active | 26% | 38% |  | Active | 3% | Active | ≥ 100% | Active | Active | Activity (LAPC4 [11]): Active; Activity (LAPC4 [12]): Active; Activity (LAPC4 [13]): Active; Activity [14]: Active; Activity (DU-145 [15]): inactive; Activity [16]: 100%; Activity [17]: Active; Activity [18]: Dose-Dependent Effect; GI50 (LAPC4 [19]): 7.9 µM; Activity [20]: Dose-Dependent Effect; Activity [21]: Active; Activity (LAPC4 [22]): >80%; Activity (LAPC4 [23]): Active; Activity [24]: 100%; Activity (CWR22R [25]): Active; Activity (LAPC4 [26]): Active; Activity [27]: Dose-Dependent Effect; Activity [28]: Active; IC50 (Androgen receptor): 1.18 µM; Activity (LAPC4 [29]): Active
6 | Cc1c2c(nn1-c1ccccc1)C[C@@H]1CC[C@@H]3[C@H](CC[C@]4(C)[C@@H](O)CC[C@@H]34)[C@@]1(C)C2 | Active | 24% | 65% |  | Active | 1% | Active | 97% |  |  | 

From ChEMBL document CHEMBL5346877, “A-ring-fused pyrazoles of dihydrotestosterone targeting prostate cancer cells via the downregulation of the androgen receptor” (Eur J Med Chem, 2023)
